Experimental data taken from paper PMC7892824, “Eltrombopag directly inhibits BAX and prevents cell death” (Nature Communications, 2021).

What was measured:
BAX R134E = target: T1, BAX R134E (Homo sapiens, UniProt Q07812, R134E); test: 1H-15N HSQC NMR chemical shift perturbation; liposomal release inhibition; assay type: binding
T1 construct: full-length (1–192)

BAX = target: T2, BAX (Mus musculus, UniProt Q07813); test: CETSA, […] EO, TM lowered by […] °C; assay type: cell-based; settings: read-out: CETSA, 10 μM EO, TM lowered by 9 °C
T2 construct: endogenous BAX in BAK KO mouse embryonic fibroblasts
T2 sequence (Q07813 whole entry): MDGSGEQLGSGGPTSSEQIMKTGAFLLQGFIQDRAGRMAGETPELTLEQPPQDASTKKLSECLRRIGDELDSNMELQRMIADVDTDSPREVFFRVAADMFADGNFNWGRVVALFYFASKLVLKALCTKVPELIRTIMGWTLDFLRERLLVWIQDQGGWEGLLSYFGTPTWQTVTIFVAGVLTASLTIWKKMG

T1 sequence (Q07812 whole entry R134E): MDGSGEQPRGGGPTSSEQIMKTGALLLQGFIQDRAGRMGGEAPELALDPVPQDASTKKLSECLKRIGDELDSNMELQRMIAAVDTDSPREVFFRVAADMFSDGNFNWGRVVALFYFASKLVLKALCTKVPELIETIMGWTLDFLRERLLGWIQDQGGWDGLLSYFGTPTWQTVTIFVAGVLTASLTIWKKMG

- Tm decrease at 10 µM (BAX): 9 °C
SMILES: CC1=NN(c2ccc(C)c(C)c2)C(=O)/C1=N\Nc1cccc(-c2cccc(C(=O)O)c2)c1O [compound 2, Eltrombopag]
- 1H-15N HSQC NMR chemical shift perturbation; liposomal release inhibition (BAX R134E): BAX R134E in the presence of EO exhibited clustering of CSPs to the trigger site, albeit with reduced CSPs
